Measured values from US10265298B2, “Method of increasing the bioavailability of silybin” (Macau University of Science and Technology, priority 2017, dated 2019).

Tests used:
MDR1 (P-gp) = MDR1 (P-gp) (Homo sapiens, UniProt P08183); assay: Transport of silybin across MDCKII-MDR1 cells; conditions: for net efflux ratio: absence of any inhibitor
Procedure: Parental Madin-Darby canine kidney II (MDCKII), multi-drug resistance gene 1-Madin-Darby canine kidney II (MDR1-MDCKII), breast cancer resistance protein-Madin-Darby canine kidney II (BCRP-MDCKII), and multi-drug resistance protein 2-Madin-Darby canine kidney II (MRP2-MDCKII) cells were kindly provided by the Netherlands Cancer Institute (Amsterdam, Netherlands) and frozen at −80° C. The MDCKII cells were cultured at 37° C./5% CO2 in Dulbecco's modified Eagle's medium supplemented with 10% fetal bovine serum, 1% nonessential amino acids, and 2% penicillin-streptomycin. The cells were seeded on transwell inserts (Corning Inc.) at a density of 2.0×10^5 cells/cm^2 and grown for 4-5 days to form confluent monolayers. […]
Bidirectional transport assays in human colorectal adenocarcinoma 2 (Caco-2) and Madin-Darby canine kidney II (MDCK II) was carried out by dosing substrates in assay buffer to either the apical chamber (A-to-B) or the basolateral chamber (B-to-A); cells were then incubated at 37° C. with shaking at 50 rotations per minute (rpm), and 100 μl samples were collected at 30, 60, 90, 120 and 180 minutes from the basolateral chamber to study the drug transport of AP to BL, or apical chamber to study the drug transport of BL to AP. […] For fluorescence intensity detection, samples collected from AP or BL side were immediately detected in 96 well black plate by Microplate ultraviolet-visible spectroscopy (UV/VIS) spectrophotometer (TECAN infinite M200 PRO, Männedorf, Switzerland). […]
The apparent permeability coefficients (Papp) were calculated as Papp=dQ/dt×1/(C“0”A) where dQ/dt (mM/sec) is the rate of permeation of the drug across the cells, C0 (millimolar (mM)) is the donor compartment concentration at time zero and A (cm^2) is the area of the cell monolayer. […] Efflux Ratio (ER)=Papp (B to A)/Papp (A to B), while Papp (B−A) is the Papp value measured in the B to A direction, and Papp (A−B) is the Papp value measured in the A to B direction. […]

BCRP = biological target: T1, BCRP (Homo sapiens, UniProt Q9UNQ0); assay: Transport of silybin across MDCKII-BCRP cells; assay type: in vitro ADME; design: host or cells: MDCKII (Madin-Darby canine kidney II)
T1 sequence (Q9UNQ0 1-655): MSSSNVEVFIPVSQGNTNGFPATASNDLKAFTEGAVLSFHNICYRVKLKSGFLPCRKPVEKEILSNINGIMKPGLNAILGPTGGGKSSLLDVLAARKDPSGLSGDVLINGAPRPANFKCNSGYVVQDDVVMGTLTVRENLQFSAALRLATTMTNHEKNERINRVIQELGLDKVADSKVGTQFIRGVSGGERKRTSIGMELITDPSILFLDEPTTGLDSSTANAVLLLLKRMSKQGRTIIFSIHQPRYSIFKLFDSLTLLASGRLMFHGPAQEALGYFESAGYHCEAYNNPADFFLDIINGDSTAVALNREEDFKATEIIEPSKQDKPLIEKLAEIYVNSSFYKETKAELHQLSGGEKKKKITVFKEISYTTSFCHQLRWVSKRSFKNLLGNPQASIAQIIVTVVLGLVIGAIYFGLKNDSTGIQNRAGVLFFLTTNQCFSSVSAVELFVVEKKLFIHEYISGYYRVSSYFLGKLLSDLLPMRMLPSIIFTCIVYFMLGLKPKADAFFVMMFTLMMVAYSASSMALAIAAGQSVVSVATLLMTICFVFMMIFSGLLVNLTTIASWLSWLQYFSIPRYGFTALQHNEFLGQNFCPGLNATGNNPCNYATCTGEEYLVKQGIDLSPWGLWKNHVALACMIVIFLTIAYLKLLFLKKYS
Procedure: In all cases, each determination was performed in triplicate.
1.5 Preparation of Rat Sandwich-Cultured Hepatocytes

Sequence of MDR1 (P-gp) (P08183 whole entry): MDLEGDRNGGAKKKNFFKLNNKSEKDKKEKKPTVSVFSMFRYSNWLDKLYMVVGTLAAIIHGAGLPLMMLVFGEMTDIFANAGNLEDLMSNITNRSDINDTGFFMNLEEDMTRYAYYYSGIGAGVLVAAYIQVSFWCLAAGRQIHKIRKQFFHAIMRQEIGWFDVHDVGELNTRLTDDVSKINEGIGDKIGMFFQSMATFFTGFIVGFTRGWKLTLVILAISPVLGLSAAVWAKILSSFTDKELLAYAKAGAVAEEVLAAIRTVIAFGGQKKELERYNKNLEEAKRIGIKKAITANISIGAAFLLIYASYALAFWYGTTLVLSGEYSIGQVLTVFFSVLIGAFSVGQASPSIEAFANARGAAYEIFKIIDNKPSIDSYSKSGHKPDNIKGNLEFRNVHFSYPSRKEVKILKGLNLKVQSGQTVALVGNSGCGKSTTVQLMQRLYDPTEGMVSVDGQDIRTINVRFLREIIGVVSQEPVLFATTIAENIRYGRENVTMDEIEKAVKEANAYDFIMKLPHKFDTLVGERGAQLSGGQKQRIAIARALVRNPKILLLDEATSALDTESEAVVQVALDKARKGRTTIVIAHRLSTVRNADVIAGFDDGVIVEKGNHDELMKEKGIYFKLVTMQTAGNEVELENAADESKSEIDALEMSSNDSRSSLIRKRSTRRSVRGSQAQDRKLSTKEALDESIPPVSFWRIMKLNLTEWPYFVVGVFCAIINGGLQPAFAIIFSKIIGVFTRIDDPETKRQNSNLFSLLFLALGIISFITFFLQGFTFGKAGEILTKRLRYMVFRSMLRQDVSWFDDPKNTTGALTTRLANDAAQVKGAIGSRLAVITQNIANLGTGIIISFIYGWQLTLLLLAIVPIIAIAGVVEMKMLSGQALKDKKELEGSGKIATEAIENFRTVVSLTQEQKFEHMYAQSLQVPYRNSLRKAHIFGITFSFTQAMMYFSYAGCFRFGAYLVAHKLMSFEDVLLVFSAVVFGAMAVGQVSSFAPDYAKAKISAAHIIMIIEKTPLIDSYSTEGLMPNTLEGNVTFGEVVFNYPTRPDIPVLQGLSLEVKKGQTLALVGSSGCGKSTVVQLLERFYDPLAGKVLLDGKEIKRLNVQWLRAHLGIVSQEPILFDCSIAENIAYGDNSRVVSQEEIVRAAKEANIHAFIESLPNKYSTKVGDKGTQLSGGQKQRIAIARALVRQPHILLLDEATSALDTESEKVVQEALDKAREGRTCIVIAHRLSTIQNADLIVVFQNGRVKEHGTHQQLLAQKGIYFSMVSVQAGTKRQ

SMILES	net efflux ratio (MDR1 (P-gp))	net efflux ratio (BCRP)	MDR1 (P-gp) substrate status (MDR1 (P-gp); dog, MDCK-MDR1, 180 min, 10 µM)	BCRP substrate status (BCRP; dog, 180 min, 10 µM)
COc1cc([C@H]2Oc3cc([C@H]4Oc5cc(O)cc(O)c5C(=O)[C@@H]4O)ccc3O[C@@H]2CO)ccc1O [silybin A]	1.39	2.96	–	–
COc1cc([C@@H]2Oc3cc([C@H]4Oc5cc(O)cc(O)c5C(=O)[C@@H]4O)ccc3O[C@H]2CO)ccc1O [silybin B]	1.20	3.04	–	–
COc1cc(C2Oc3cc([C@H]4Oc5cc(O)cc(O)c5C(=O)[C@@H]4O)ccc3OC2CO)ccc1O (stereo partly drawn) [silybin]	–	–	is not a substrate for MDR1 (P-gp) efflux transporter	is a substrate for both MRP2 and BCRP efflux proteins
